From patent US11339171B2, “MDM2 inhibitors” (Gan & Lee Pharmaceuticals, priority 2017, dated 2022)
Where “and” joins values, the source holds several entries; their conditions need not be identical. Identical values can stand only once. Like-named read-outs stand apart in the source and are kept apart here.

Tests used:
[1] = molecular target: T1, MDM2 (Homo sapiens, UniProt Q00987); assay: Inhibition test of MDM2-P53 (GST-MDM2, Biotin-P53, Anti-GST-Tb, SA-XL665); assay type: binding
T1 construct: made in house
T1 sequence (Q00987 whole entry): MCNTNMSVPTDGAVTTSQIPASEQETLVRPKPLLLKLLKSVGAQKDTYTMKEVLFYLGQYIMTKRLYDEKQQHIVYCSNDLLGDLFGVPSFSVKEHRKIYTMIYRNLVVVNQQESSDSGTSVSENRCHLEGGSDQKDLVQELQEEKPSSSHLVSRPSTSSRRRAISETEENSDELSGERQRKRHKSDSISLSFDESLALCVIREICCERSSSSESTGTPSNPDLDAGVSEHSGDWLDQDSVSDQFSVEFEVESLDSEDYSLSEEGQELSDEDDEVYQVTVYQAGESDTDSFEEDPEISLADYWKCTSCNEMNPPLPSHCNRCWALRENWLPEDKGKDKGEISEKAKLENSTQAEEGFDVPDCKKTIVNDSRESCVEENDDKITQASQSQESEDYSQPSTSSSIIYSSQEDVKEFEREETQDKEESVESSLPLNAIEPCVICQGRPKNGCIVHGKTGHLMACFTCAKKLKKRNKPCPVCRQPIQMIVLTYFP
How it was run: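 HTRF-type assay using 4 nM GST-MDM2 (final), Biotin-P53, SA-XL665 and anti-GST-Tb in PBS with 0.1% BSA, 5 mM DTT and 1 mM AEBSF. Compounds in 5-fold serial dilutions over twelve points; incubation 90 min at 25° C with shaking before plate-reader read-out.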

[2] = Pharmacokinetics in ICR mice after intravenous and intragastric administration; assay type: in vivo; conditions: for MRT last: read-out: MRT(0-t); for MRT inf: read-out: MRT(0-∞); for Vd: read-out: Vz
How it was run: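 Male ICR mice (6-9 weeks, 20-30 g, n=3 per route) were fasted overnight and dosed at 2 mg/kg i.v. or 5 mg/kg intragastrically in 5% DMSO/40% PEG400/55% (10% HP-β-CD in saline). Plasma levels were measured by LC-MS/MS after protein precipitation (LLOQ 1 ng/mL), and non-compartmental PK parameters were calculated.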

[3] = test system: human osteosarcoma cell line SJSA-1; assay: Inhibition of proliferation of human osteosarcoma cell line SJSA-1 (DAPI staining, In Cell Analyzer); conditions: Homo sapiens, SJSA-1, 72 h, read-out: IC50 (nM), inhibitory activity on proliferation of human osteosarcoma cell line SJSA-1, SJSA-1, incubated 72 h
[4] = ICR mice, IV 2 mg/kg, individual animal, 2 mg/kg
[5] = ICR mice, PO 5 mg/kg, individual animal, 5 mg/kg
[6] = male, ICR, mouse, plasma, iv, 2 mg/kg, ICR mice, IV 2 mg/kg, individual animal
[7] = male, ICR, mouse, plasma, iv, 2 mg/kg, ICR mice, IV 2 mg/kg, mean of 3 animals
[8] = male, ICR, mouse, plasma, iv, 2 mg/kg, ICR mice, IV 2 mg/kg, mean of 3 animals, read-out: AUC(0-t)
[9] = male, ICR, mouse, plasma, iv, 2 mg/kg, ICR mice, IV 2 mg/kg, mean of 3 animals, read-out: Cmax
[10] = male, ICR, mouse, plasma, iv, 2 mg/kg, ICR mice, IV 2 mg/kg, mean of 3 animals, read-out: Tmax
[11] = male, ICR, mouse, plasma, iv, 2 mg/kg, ICR mice, IV 2 mg/kg, mean of 3 animals, read-out: t1/2 (converted)
[12] = male, ICR, mouse, plasma, po, 5 mg/kg, ICR mice, PO 5 mg/kg, individual animal
[13] = male, ICR, mouse, plasma, po, 5 mg/kg, ICR mice, PO 5 mg/kg, mean of 3 animals
[14] = male, ICR, mouse, plasma, po, 5 mg/kg, ICR mice, PO 5 mg/kg, mean of 3 animals, read-out: AUC(0-t)
[15] = male, ICR, mouse, plasma, po, 5 mg/kg, ICR mice, PO 5 mg/kg, mean of 3 animals, read-out: Cmax
[16] = male, ICR, mouse, plasma, po, 5 mg/kg, ICR mice, PO 5 mg/kg, mean of 3 animals, read-out: Tmax
[17] = male, ICR, mouse, plasma, po, 5 mg/kg, ICR mice, PO 5 mg/kg, mean of 3 animals, read-out: t1/2 (converted)
[18] = male, ICR, mouse, plasma, po, 5 mg/kg, oral intragastric administration 5 mg/kg, read-out: AUC0-t
[19] = ICR mice, IV 2 mg/kg, individual animals 301-303, 2 mg/kg
[20] = ICR mice, PO 5 mg/kg, individual animals 401-403, 5 mg/kg
[21] = male, ICR, mouse, plasma, iv, 2 mg/kg, ICR mice, IV 2 mg/kg, individual animals 301-303
[22] = male, ICR, mouse, plasma, po, 5 mg/kg, ICR mice, PO 5 mg/kg, individual animals 401-403

**Q.** Which results are given for COc1cc(OC)c(-c2nc3c(n2C(C)C)[C@@]2(C(=O)Nc4cc(Cl)ccc42)N(c2cc(Cl)ccc2F)C3=O)cn1 [Example S-133, (S)-6-chloro-5′-(5-chloro-2-fluorophenyl)-2′-(4,6-dimethoxypyridin-3-yl)-3′-isopropyl-3′H-spiro[dihydroindole-3,4′-pyrrolo[3,4-d]imidazole]-2,6′(5′H)-dione]?
**A.** IC50 [1]: 1.41 nM; AUC(0-t) [2, 4]: 3187.22 ng·h/mL and 2904.29 ng·h/mL; AUC(0-∞) [2, 4]: 3247.82 ng·h/mL and 3022.24 ng·h/mL; CL [2, 4]: 10.26 mL/min/kg and 11.03 mL/min/kg; Cmax [2, 4]: 2521.09 ng/mL and 2055.95 ng/mL; MRT(0-t) [2, 4]: 1.05 h and 1.20 h; MRT(0-∞) [2, 4]: 1.17 h and 1.45 h; Vz [2, 4]: 1.01 L/kg and 1.16 L/kg; t1/2 [2, 4]: 1.13 h and 1.22 h; AUC(0-t) [2, 5]: 4282.62 ng·h/mL and 5953.82 ng·h/mL; AUC(0-∞) [2, 5]: 4314.80 ng·h/mL and 5994.87 ng·h/mL; Cmax [2, 5]: 1489.30 ng/mL and 2195.02 ng/mL; MRT(0-t) [2, 5]: 2.17 h and 2.05 h; MRT(0-∞) [2, 5]: 2.22 h and 2.10 h; t1/2 [2, 5]: 1.05 h and 1.04 h; AUC(0-inf) [2, 6]: 4700 ng·h/mL; clearance [2, 6]: 7.09 mL/min/kg; AUC(0-t) ([2]; male, ICR, mouse, plasma, iv, 2 mg/kg, ICR mice, IV 2 mg/kg, individual animal, read-out: AUC(0-t)): 4600 ng·h/mL; Cmax ([2]; male, ICR, mouse, plasma, iv, 2 mg/kg, ICR mice, IV 2 mg/kg, individual animal, read-out: Cmax): 2980 ng/mL; MRT last [2, 6]: 1.18 h; MRT inf [2, 6]: 1.31 h; Tmax ([2]; male, ICR, mouse, plasma, iv, 2 mg/kg, ICR mice, IV 2 mg/kg, individual animal, read-out: Tmax): 0.08 h; Vd [2, 6]: 0.66 L/kg; half-life ([2]; male, ICR, mouse, plasma, iv, 2 mg/kg, ICR mice, IV 2 mg/kg, individual animal, read-out: t1/2 (converted)): 1.07 h; AUC(0-inf) [2, 7]: 3660 ng·h/mL; clearance [2, 7]: 9.46 mL/min/kg; AUC(0-t) [2, 8]: 3560 ng·h/mL; Cmax [2, 9]: 2520 ng/mL; MRT last [2, 7]: 1.14 h; MRT inf [2, 7]: 1.31 h; Tmax [2, 10]: 0.083 h; Vd [2, 7]: 0.94 L/kg; half-life [2, 11]: 1.14 h; AUC(0-inf) [2, 12]: 6150 ng·h/mL; AUC(0-t) ([2]; male, ICR, mouse, plasma, po, 5 mg/kg, ICR mice, PO 5 mg/kg, individual animal, read-out: AUC(0-t)): 6070 ng·h/mL; Cmax ([2]; male, ICR, mouse, plasma, po, 5 mg/kg, ICR mice, PO 5 mg/kg, individual animal, read-out: Cmax): 1570 ng/mL; MRT last [2, 12]: 2.34 h; MRT inf [2, 12]: 2.43 h; Tmax ([2]; male, ICR, mouse, plasma, po, 5 mg/kg, ICR mice, PO 5 mg/kg, individual animal, read-out: Tmax): 1 h; half-life ([2]; male, ICR, mouse, plasma, po, 5 mg/kg, ICR mice, PO 5 mg/kg, individual animal, read-out: t1/2 (converted)): 1.15 h; AUC(0-inf) [2, 13]: 5490 ng·h/mL; AUC(0-t) [2, 14]: 5440 ng·h/mL; Cmax [2, 15]: 1750 ng/mL; MRT last [2, 13]: 2.19 h; MRT inf [2, 13]: 2.25 h; Tmax [2, 16]: 1 h; half-life [2, 17]: 1.08 h; AUC(0-t) [2, 18]: 5440 ng·h/mL; bioavailability ([2]; male, mouse, plasma, ICR mice, PO 5 mg/kg vs IV 2 mg/kg, from mean values, read-out: F* (bioavailability)): 61%; IC50 [3]: 99.8 nM

**Q.** Which results are given for CCOc1ncc(-c2nc3c(n2C(C)C)[C@@]2(C(=O)Nc4cc(Cl)ccc42)N(c2cc(Cl)cnc2C)C3=O)c(OC)n1 [Example S-134, (S)-6-chloro-5′-(5-chloro-2-methylpyridin-3-yl)-2′-(2-ethoxy-4-methoxypyrimidin-5-yl)-3′-isopropyl-3′H-spiro[dihydroindole-3,4′-pyrrolo[3,4-d]imidazole]-2,6′(5′H)-dione]?
**A.** IC50 [1]: 2.6 nM; AUC(0-t) [2, 19]: 7289.25 ng·h/mL and 6534.27 ng·h/mL; AUC(0-∞) [2, 19]: 7419.12 ng·h/mL and 6880.52 ng·h/mL; CL [2, 19]: 4.49 mL/min/kg and 4.84 mL/min/kg; Cmax [2, 19]: 4224.01 ng/mL and 3408.57 ng/mL; MRT(0-t) [2, 19]: 1.28 h and 1.50 h; MRT(0-∞) [2, 19]: 1.39 h and 1.83 h; Tmax [2, 19]: 0.08 h and 0.25 h; Vz [2, 19]: 0.42 L/kg and 0.61 L/kg; t1/2 [2, 19]: 1.07 h and 1.47 h; F* ([2]; ICR mice, PO 5 mg/kg vs IV 2 mg/kg, mean): 47.70%; AUC(0-t) [2, 20]: 7889.97 ng·h/mL and 4859.23 ng·h/mL; AUC(0-∞) [2, 20]: 8123.13 ng·h/mL and 4978.41 ng·h/mL; Cmax [2, 20]: 3905.15 ng/mL and 3059.53 ng/mL and 1591.65 ng/mL; MRT(0-t) [2, 20]: 2.21 h; MRT(0-∞) [2, 20]: 2.28 h and 2.40 h; Tmax [2, 20]: 0.25 h; t1/2 [2, 20]: 1.54 h and 1.43 h; AUC(0-inf) [2, 21]: 5060 ng·h/mL; clearance [2, 21]: 6.59 mL/min/kg; AUC(0-t) ([2]; male, ICR, mouse, plasma, iv, 2 mg/kg, ICR mice, IV 2 mg/kg, individual animals 301-303, read-out: AUC(0-t)): 5020 ng·h/mL; Cmax ([2]; male, ICR, mouse, plasma, iv, 2 mg/kg, ICR mice, IV 2 mg/kg, individual animals 301-303, read-out: Cmax): 3520 ng/mL; MRT last [2, 21]: 1.17 h; MRT inf [2, 21]: 1.23 h; Vd [2, 21]: 0.53 L/kg; half-life ([2]; male, ICR, mouse, plasma, iv, 2 mg/kg, ICR mice, IV 2 mg/kg, individual animals 301-303, read-out: t1/2 (converted)): 0.93 h; AUC(0-inf) [2, 7]: 6450 ng·h/mL; clearance [2, 7]: 5.31 mL/min/kg; AUC(0-t) [2, 8]: 6280 ng·h/mL; Cmax [2, 9]: 3720 ng/mL; MRT last [2, 7]: 1.32 h; MRT inf [2, 7]: 1.48 h; Tmax [2, 10]: 0.14 h; Vd [2, 7]: 0.52 L/kg; half-life [2, 11]: 1.15 h; AUC(0-inf) [2, 22]: 9930 ng·h/mL; AUC(0-t) ([2]; male, ICR, mouse, plasma, po, 5 mg/kg, ICR mice, PO 5 mg/kg, individual animals 401-403, read-out: AUC(0-t)): 9720 ng·h/mL; MRT last [2, 22]: 2.04 h; MRT inf [2, 22]: 2.21 h; Tmax ([2]; male, ICR, mouse, plasma, po, 5 mg/kg, ICR mice, PO 5 mg/kg, individual animals 401-403, read-out: Tmax): 0.5 h; half-life ([2]; male, ICR, mouse, plasma, po, 5 mg/kg, ICR mice, PO 5 mg/kg, individual animals 401-403, read-out: t1/2 (converted)): 1.38 h; AUC(0-inf) [2, 13]: 7680 ng·h/mL; AUC(0-t) [2, 14]: 7490 ng·h/mL; Cmax [2, 15]: 2850 ng/mL; MRT last [2, 13]: 2.1 h; MRT inf [2, 13]: 2.29 h; Tmax [2, 16]: 0.42 h; half-life [2, 17]: 1.45 h; AUC(0-t) [2, 18]: 7490 ng·h/mL; half-life ([2]; male, ICR, mouse, plasma, po, 5 mg/kg, oral intragastric administration 5 mg/kg, read-out: half-life (converted)): 1.45 h; IC50 [3]: 82.2 nM
